Data taken from patent US20240208992A1, “MACROCYCLES AS CFTR MODULATORS” (Idorsia Pharmaceuticals Ltd, priority 2021, published 2024).

Molecular target: human F508del-CFTR (Homo sapiens, UniProt P13569, DEL508-508)
Test: F508del-CFTR cell surface expression (corrector activity), DiscoveRx ß-galactosidase complementation chemiluminescence assay in recombinant U2OS cell line;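 note: U2OS cells co-expressing ProLink-tagged F508del-CFTR and a membrane-anchored enzyme acceptor, where more surface CFTR restores β-galactosidase activity measured by chemiluminescence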
Details: for EC50: EC50, F508del-CFTR cell surface expression; for Emax: U2OS
[1] = U2OS cell line, 16h compound incubation, geomean values
[2] = in relation to the Emax of the corrector lumacaftor (=100%), U2OS cell line, 16h compound incubation, arithmetic mean values
[3] = U2OS cells, 16h compound incubation, geomean values
[4] = in relation to Emax of corrector lumacaftor (=100%), arithmetic mean values
[5] = U2OS cells, 16h compound incubation, geomean of several measurements
[6] = in relation to the Emax of the corrector lumacaftor (=100%), U2OS cells, 16h compound incubation, arithmetic mean

Chain of human F508del-CFTR (P13569 with tags, fused parts or gaps DEL508-508): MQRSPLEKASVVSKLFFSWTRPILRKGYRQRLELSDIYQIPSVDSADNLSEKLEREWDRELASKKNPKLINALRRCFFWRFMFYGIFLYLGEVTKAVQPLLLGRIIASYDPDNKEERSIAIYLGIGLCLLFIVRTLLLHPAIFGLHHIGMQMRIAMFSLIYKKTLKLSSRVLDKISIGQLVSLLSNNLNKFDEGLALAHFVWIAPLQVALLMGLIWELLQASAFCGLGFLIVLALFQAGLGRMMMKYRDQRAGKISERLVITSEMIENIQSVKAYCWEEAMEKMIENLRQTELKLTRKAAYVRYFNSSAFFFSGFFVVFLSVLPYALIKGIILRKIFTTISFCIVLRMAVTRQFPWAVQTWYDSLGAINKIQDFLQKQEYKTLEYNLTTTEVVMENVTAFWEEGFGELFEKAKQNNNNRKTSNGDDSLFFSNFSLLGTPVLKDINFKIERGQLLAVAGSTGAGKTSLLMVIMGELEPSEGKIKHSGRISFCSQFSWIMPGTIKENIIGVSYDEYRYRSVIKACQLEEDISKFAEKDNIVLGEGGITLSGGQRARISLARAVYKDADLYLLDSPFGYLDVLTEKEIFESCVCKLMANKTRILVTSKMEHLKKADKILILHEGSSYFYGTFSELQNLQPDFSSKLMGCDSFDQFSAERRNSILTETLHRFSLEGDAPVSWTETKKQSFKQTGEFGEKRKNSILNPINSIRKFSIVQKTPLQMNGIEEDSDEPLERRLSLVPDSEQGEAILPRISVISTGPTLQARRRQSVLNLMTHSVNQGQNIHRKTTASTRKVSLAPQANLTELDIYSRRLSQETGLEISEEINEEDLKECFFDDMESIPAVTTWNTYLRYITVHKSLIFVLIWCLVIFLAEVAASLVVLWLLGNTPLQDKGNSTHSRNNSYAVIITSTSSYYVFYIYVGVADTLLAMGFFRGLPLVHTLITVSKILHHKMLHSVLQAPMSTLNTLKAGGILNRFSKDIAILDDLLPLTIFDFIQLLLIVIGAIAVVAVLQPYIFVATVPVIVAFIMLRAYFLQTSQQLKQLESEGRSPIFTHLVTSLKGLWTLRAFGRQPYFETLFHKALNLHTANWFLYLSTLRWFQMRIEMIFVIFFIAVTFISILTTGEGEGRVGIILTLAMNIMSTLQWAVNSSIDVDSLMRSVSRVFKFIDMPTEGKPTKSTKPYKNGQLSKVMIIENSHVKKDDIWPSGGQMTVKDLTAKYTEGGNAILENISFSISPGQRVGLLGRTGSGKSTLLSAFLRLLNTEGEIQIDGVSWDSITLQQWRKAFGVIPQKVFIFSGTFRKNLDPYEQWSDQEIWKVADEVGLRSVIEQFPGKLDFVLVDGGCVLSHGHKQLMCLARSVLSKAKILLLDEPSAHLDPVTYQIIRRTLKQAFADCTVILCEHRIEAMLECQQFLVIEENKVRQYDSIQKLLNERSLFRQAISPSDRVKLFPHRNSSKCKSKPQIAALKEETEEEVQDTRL

COc1cccc(CCNC(=O)[C@@H]2CC(=O)N(C)[C@@H](CC(C)C)C(=O)N3CCOC[C@@H]3C(=O)N[C@H](Cc3ccccc3)COc3cnc4ccccc4c3C(=O)N2)c1OC [Example 65, (9S,13S,19aR,22R)-22-benzyl-N-(2,3-dimethoxyphenethyl)-13-isobutyl-12-methyl-7,11,14,20-tetraoxo-7,8,9,10,11,12,13,14,16,17,19,19a,20,21,22,23-hexadecahydro-[1,4]oxazino[3′,4′:6,7][1]oxa[4,7,10,14]tetraazacycloheptadecino[17,16-c]quinoline-9-carboxamide]
EC50 [1]: 647 nM
Emax [2]: 282%

Cc1cc(CCNC(=O)[C@@H]2CC(=O)N(C)[C@@H](CC(C)C)C(=O)N3CCCC[C@@H]3C(=O)N[C@H](Cc3ccccc3)COc3ccnc(C)c3C(=O)N2)on1 [Example 444, (7S,11S,17aR,20R)-20-benzyl-11-isobutyl-4,10-dimethyl-N-(2-(3-methylisoxazol-5-yl)ethyl)-5,9,12,18-tetraoxo-5,6,7,8,9,10,11,12,15,16,17,17a,18,19,20,21-hexadecahydro-14H-dipyrido[2,1-f:3′,4′-p][1]oxa[4,7,10,14]tetraazacycloheptadecine-7-carboxamide]
EC50 [3]: 1050 nM
Emax [4]: 199%

CC(C)C[C@H]1C(=O)N2CCCC[C@@H]2C(=O)N[C@H](Cc2ccccc2)COc2ccc3c(c2C(=O)N[C@H](C(=O)NCCc2c(F)cccc2F)CC(=O)N1C)OCC3 [Example 491, (8S,12S,18aR,21R)-21-benzyl-N-(2,6-difluorophenethyl)-12-isobutyl-11-methyl-6,10,13,19-tetraoxo-3,4,6,7,8,9,10,11,12,13,16,17,18,18a,19,20,21,22-octadecahydro-15H-benzofuro[7,6-p]pyrido[2,1-f][1]oxa[4,7,10,14]tetraazacycloheptadecine-8-carboxamide]
EC50 [3]: 209 nM
Emax [4]: 178%

COc1cc(CCNC(=O)[C@@H]2CC(=O)N(C)[C@@H](CC(C)C)C(=O)N3CCCC[C@H]3C(=O)N[C@H](Cc3ccccc3)COc3ccc4ncc(F)cc4c3C(=O)N2)on1 [Example 770, (9S,13S,19aS,22R)-22-benzyl-5-fluoro-13-isobutyl-N-(2-(3-methoxyisoxazol-5-yl)ethyl)-12-methyl-7,11,14,20-tetraoxo-7,8,9,10,11,12,13,14,17,18,19,19a,20,21,22,23-hexadecahydro-16H-pyrido[2′,1′:6,7][1]oxa[4,7,10,14]tetraazacycloheptadecino[16,17-f]quinoline-9-carboxamide]
EC50 [3]: 1000 nM
Emax [4]: 228%

COc1cccc(CCNC(=O)[C@@H]2CC(=O)N(C)[C@@H](CC(C)C)C(=O)N3CCN(c4ccccc4)C[C@@H]3C(=O)N[C@H](Cc3ccccc3)COc3cnc4ccccc4c3C(=O)N2)c1 [Example 509, (9S,13S,19aR,22R)-22-benzyl-13-isobutyl-N-(3-methoxyphenethyl)-12-methyl-7,11,14,20-tetraoxo-18-phenyl-7,8,9,10,11,12,13,14,17,18,19,19a,20,21,22,23-hexadecahydro-16H-pyrazino[2′,11:6,7][1]oxa[4,7,10,14]tetraazacycloheptadecino[17,16-c]quinoline-9-carboxamide]
EC50 [3]: 75 nM
Emax [4]: 327%

Cc1nc2ccc3c(c2o1)C(=O)N[C@H](C(=O)NCCc1cc(C(C)C)no1)CC(=O)N(C)[C@@H](CC(C)C)C(=O)N(C)C1(CC1)C(=O)N[C@H](Cc1ccccc1)CO3 [Example 762, (8′R,14'S,18'S)-8′-Benzyl-14′-isobutyl-N-(2-(3-isopropylisoxazol-5-yl)ethyl)-2′,12′,15′-trimethyl-10′,13′,16′,20′-tetraoxo-7′,8′,9′,10′,13′,14′,15′,16′,17′,18′,19′,20′-dodecahydro-12′H-spiro[cyclopropane-1,11′-oxazolo[4′,5′:5,6]benzo[1,2-p][1]oxa[4,7,10,14]tetraazacycloheptadecine]-18′-carboxamide]
EC50 [3]: 929 nM
Emax [4]: 333%

COc1noc(CCNC(=O)[C@@H]2CC(=O)N(C)[C@@H](CC(C)C)C(=O)N(C)C3(CC(F)(F)C3)C(=O)N[C@H](Cc3ccccc3)COc3ccc4ncc(F)cc4c3C(=O)N2)c1F [Example 969, (3′S,7′S,13′R)-13′-benzyl-3,3,20′-trifluoro-N-(2-(4-fluoro-3-methoxyisoxazol-5-yl)ethyl)-7′-isobutyl-6′,9′-dimethyl-1′,5′,8′,11′-tetraoxo-2′,3′,4′,5′,6′,7′,8′,9′,11′,12′,13′,14′-dodecahydro-1′H-spiro[cyclobutane-1,10′-[1]oxa[4,7,10,14]tetraazacycloheptadecino[16,17-f]quinoline]-3′-carboxamide]
EC50 [5]: 142 nM
Emax [6]: 452%

Cc1cccc2c1C(=O)N[C@H](C(=O)NCCc1ccc3c(c1)OCO3)CC(=O)N(C)[C@@H](CC(C)C)C(=O)N(CCC1CCCCC1)CC(=O)N[C@H](Cc1ccccc1)CO2 [Example 246, (3R,9S,13S)-N-(2-(benzo[d][1,3]dioxol-5-yl)ethyl)-3-benzyl-7-(2-cyclohexylethyl)-9-isobutyl-10,16-dimethyl-5,8,11,15-tetraoxo-2,3,4,5,6,7,8,9,10,11,12,13,14,15-tetradecahydrobenzo[p][1]oxa[4,7,10,14]tetraazacycloheptadecine-13-carboxamide]
EC50 [1]: 140 nM
Emax [2]: 105%

COc1noc(CCNC(=O)[C@@H]2CC(=O)N(C)[C@@H](CC(C)C)C(=O)N3CCCC[C@@H]3C(=O)N[C@H](Cc3ccccc3)COc3cnc4ccc(F)cc4c3C(=O)N2)n1 [Example 930, (9S,13S,19aR,22R)-22-benzyl-5-fluoro-13-isobutyl-N-(2-(3-methoxy-1,2,4-oxadiazol-5-yl)ethyl)-12-methyl-7,11,14,20-tetraoxo-7,8,9,10,11,12,13,14,17,18,19,19a,20,21,22,23-hexadecahydro-16H-pyrido[2′,1′:6,7][1]oxa[4,7,10,14]tetraazacycloheptadecino[17,16-c]quinoline-9-carboxamide]
EC50 [5]: 142 nM
Emax [6]: 460%

COc1cccc(CCNC(=O)[C@@H]2CC(=O)N(C)[C@@H](CC(C)C)C(=O)N3CCN(S(C)(=O)=O)C[C@@H]3C(=O)N[C@H](Cc3ccccc3)COc3ccc4ccccc4c3C(=O)N2)c1 [Example 731, (4aR,7R,18S,22S)-7-benzyl-22-isobutyl-N-(3-methoxyphenethyl)-21-methyl-3-(methylsulfonyl)-5,16,20,23-tetraoxo-2,3,4,4a,5,6,7,8,16,17,18,19,20,21,22,23-hexadecahydro-1H-naphtho[1,2-p]pyrazino[2,1-f][1]oxa[4,7,10,14]tetraazacycloheptadecine-18-carboxamide]
EC50 [3]: 381 nM
Emax [4]: 248%

COc1cccc(CCNC(=O)[C@@H]2CC(=O)N(C)[C@@H](CC(C)C)C(=O)N(C)CC(=O)N[C@H](Cc3ccccc3)COc3nc(C)sc3C(=O)N2)c1 [Example 241, (6R,12S,16S)-6-benzyl-12-isobutyl-N-(3-methoxyphenethyl)-2,10,13-trimethyl-8,11,14,18-tetraoxo-5,6,7,8,9,10,11,12,13,14,15,16,17,18-tetradecahydrothiazolo[5,4-p][1]oxa[4,7,10,14]tetraazacycloheptadecine-16-carboxamide]
EC50 [1]: 1660 nM
Emax [2]: 92%

Cc1cc(CCNC(=O)[C@@H]2CC(=O)N(C)[C@@H](CC(C)C)C(=O)N3CCNC[C@@H]3C(=O)N[C@H](Cc3ccccc3)COc3cnc4ccccc4c3C(=O)N2)on1 [Example 727, (9S,13S,19aR,22R)-22-benzyl-13-isobutyl-12-methyl-N-(2-(3-methylisoxazol-5-yl)ethyl)-7,11,14,20-tetraoxo-7,8,9,10,11,12,13,14,17,18,19,19a,20,21,22,23-hexadecahydro-16H-pyrazino[2′,1′:6,7][1]oxa[4,7,10,14]tetraazacycloheptadecino[17,16-c]quinoline-9-carboxamide]
EC50 [3]: 5050 nM
Emax [4]: 138%

Cc1cc2c3c(ccc2cn1)OC[C@@H](Cc1ccccc1)NC(=O)[C@@H](Cc1nc(C(F)(F)F)no1)N(C)C(=O)[C@H](CC(C)C)N(C)C(=O)C[C@@H](C(=O)NCCn1nnc(C2CC2)n1)NC3=O [Example 890, (3S,7S,10R,13R)-13-benzyl-N-(2-(5-cyclopropyl-2H-tetrazol-2-yl)ethyl)-7-isobutyl-6,9,20-trimethyl-1,5,8,11-tetraoxo-10-((3-(trifluoromethyl)-1,2,4-oxadiazol-5-yl)methyl)-1,2,3,4,5,6,7,8,9,10,11,12,13,14-tetradecahydro-[1]oxa[4,7,10,14]tetraazacycloheptadecino[16,17-f]isoquinoline-3-carboxamide]
EC50 [5]: 34 nM
Emax [6]: 409%

CC(C)C[C@H]1C(=O)N(C)C2(CC2)C(=O)N[C@H](Cc2ccccc2)COc2cnc3ccc(F)cc3c2C(=O)N[C@H](C(=O)NCCc2cccc(-n3nccn3)c2)CC(=O)N1C [Example 136, (3′S,7′S,13′R)-N-(3-(2H-1,2,3-triazol-2-yl)phenethyl)-13′-benzyl-20′-fluoro-7′-isobutyl-6′,9′-dimethyl-1′,5′,8′,11′-tetraoxo-2′,3′,4′,5′,6′,7′,8′,9′,11′,12′,13′,14′-dodecahydro-1′H-spiro[cyclopropane-1,10′-[1]oxa[4,7,10,14]tetraazacycloheptadecino[17,16-c]quinoline]-3′-carboxamide]
EC50 [1]: 270 nM
Emax [2]: 271%

COc1cccc(CCNC(=O)[C@@H]2CC(=O)N(C)[C@@H](CC(C)C)C(=O)N(C)C(C)(C)C(=O)N[C@H](Cc3ccccc3)COc3cnc4ccccc4c3C(=O)N2)c1 [Example 503, (3S,7S,13R)-13-benzyl-7-isobutyl-N-(3-methoxyphenethyl)-6,9,10,10-tetramethyl-1,5,8,11-tetraoxo-1,2,3,4,5,6,7,8,9,10,11,12,13,14-tetradecahydro-[1]oxa[4,7,10,14]tetraazacycloheptadecino[17,16-c]quinoline-3-carboxamide]
EC50 [3]: 772 nM
Emax [4]: 137%
